Experimental data: patent publication US20240408169A1 (priority 2023, published 2024)
Read-outs that look alike come from different tables or passages of the source. *1 amine or outer side, *2 acyl side, *3 side chain or, on linkers, in order; H or OH if unused. Where a SMILES comes first, the peptide text is derived from it. Bridges are numbered along the chain shown (N, C = ends). [ ]: non-standard residue; d: D form. The star is where a group is joined. X39 = CN1CCC(n2cc(-c3ccc(-c4ccc(Cl)cc4C[C@@H](C(=O)[*:2])N(C)[*:1])cc3)cn2)CC1; X58 = CC(C)C(=O)N1CC=C(c2ccc(Cl)cc2C[C@@H](C(=O)[*:2])N(C)[*:1])CC1; X93 = CN([C@@H](Cc1cc(Cl)ccc1-c1ccc(OC2CCOCC2)cc1)C(=O)[*:2])[*:1]; X16 = CN([C@@H](Cc1cc(Cl)ccc1-c1cnc2c(cnn2C)c1)C(=O)[*:2])[*:1]; X83 = CN([C@@H](Cc1cc(Cl)ccc1-c1cnn2c1COCC2)C(=O)[*:2])[*:1]; NMehhhLys(Me) = CN([C@@H](CCCCCCCN(C)[*:3])C(=O)[*:2])[*:1]; X44 = Cc1nnc(-c2ccc(Cl)cc2C[C@@H](C(=O)[*:2])N(C)[*:1])o1; X64 = CN([C@@H](Cc1cc(Cl)ccc1OC1(C)CC1)C(=O)[*:2])[*:1]; NMe(hhhLys) = CN([C@@H](CCCCCCCN[*:3])C(=O)[*:2])[*:1]; X96 = CN([C@@H](Cc1cc(Cl)cc2ccn(C)c12)C(=O)[*:2])[*:1]; Oxane2carbonyl(2R-CF3) = O=C([C@@]1(C(F)(F)F)CCCCO1)*; cBuCO(3,3-F2-1-CF3) = O=C(C1(C(F)(F)F)CC(F)(F)C1)*; Pro(trans-4-F) = O=C(O)[C@@H]1C[C@@H](F)CN1; Gly(cPr) = N[C@H](C(=O)O)C1CC1

Tests used:
WI-38 cells = test: MTT proliferation assay, WI-38; type: cell-based; details: 3 days compound exposure, 1:3 serial dilution starting at 10 μM;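 further: Eight- or ten-point dilution series, with exposure length chosen to span about three to four cell doublings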
CyclinA2/CDK2 = biological target: T1, CyclinA2/CDK2 (Homo sapiens, UniProt P20248); test: Fluorescence Polarization (FP) competitive binding assay, Cyclin A2/Cdk2;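 further: plates equilibrated two hours at room temperature before polarization reading, IC50 fitted from eight-concentration compound titration curves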
T1 construct: purchased CRELUX Protein Services

OVCAR3 cells = test: MTT proliferation assay, OVCAR3; type: cell-based; details: 5 days compound exposure, 1:3 serial dilution starting at 10 μM;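 further: compound given as an 8- or 10-point series, one day after plating, with exposure covering roughly 3-4 cell doublings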
CyclinE1/CDK2 = biological target: T2, CyclinE1/CDK2 (Homo sapiens, UniProt P24864); test: Fluorescence Polarization (FP) competitive binding assay, Cyclin E1/Cdk2;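 further: readings taken after two-hour equilibration at room temperature in HEPES buffer with NaCl, DTT, NP-40 and BSA, IC50 fitted from eight-concentration serial dilution series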
T2 construct: purchased Eurofins, discovery 14-475

NCI-H1048 cells = test: MTT proliferation assay, NCI-H1048; type: cell-based; details: 5 days compound exposure, 1:3 serial dilution starting at 10 μM;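 further: Dose-response in 96-well plates over 8 or 10 concentration points, with exposure spanning 3-4 cell doublings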
CyclinB1/CDK1 = biological target: T3, CyclinB1/CDK1 (Homo sapiens, UniProt P14635); test: Fluorescence Polarization (FP) competitive binding assay, Cyclin B1/Cdk1;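 further: fluorescence polarization read after equilibration at room temperature, with IC50 taken from serially diluted dose-response curves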
T3 construct: purchased Eurofins, discovery 14-450

[1] = 8 nM Cyclin A2/Cdk2, 2 nM FAM probe, average of 2-3 independent experiments, read-out: Cyclin A FP IC50
[2] = 10 nM Cyclin E1/Cdk2, 2 nM FAM probe, average of 2-3 independent experiments, read-out: Cyclin E FP IC50
[3] = 10 nM Cyclin B1/Cdk1, 2 nM FAM probe; average of 2-3 independent experiments; read-out: Cyclin B FP IC50
[4] = read-out: Cyclin B FP IC50; 10 nM Cyclin B1/Cdk1, 2 nM FAM probe; average of 2-3 independent experiments

| Structure (SMILES) | GI50 (WI-38 cells) | IC50 (CyclinA2/CDK2; [1]) | GI50 (OVCAR3 cells) | IC50 (CyclinE1/CDK2; [2]) | GI50 (NCI-H1048 cells) | IC50 (CyclinB1/CDK1; [3]) | IC50 (CyclinA2/CDK2) | IC50 (CyclinE1/CDK2) | IC50 (CyclinB1/CDK1; [4]) |
| --- | --- | --- | --- | --- | --- | --- | --- | --- | --- |
| CC(C)C[C@@H]1NC(=O)[C@@H](N(C)C(=O)[C@@H](NC(=O)[C@@H]2C[C@@H](F)CN2C(=O)C2(C(F)(F)F)CC(F)(F)C2)C2CC2)CCCCCCCN(C)C(=O)[C@H](Cc2cc(Cl)ccc2-c2ccc(-c3cnn(C4CCN(C)CC4)c3)cc2)N(C)C1=O [Example 380] ({cBuCO(3,3-F2-1-CF3)}-[Pro(trans-4-F)][Gly(cPr)][NMehhhLys(Me)]L[X39]; lactam 3-C) | 1170 nM | 30 nM | 30 nM | 2170 nM | 20 nM | 20 nM | – | – | – |
| CC(C)C[C@@H]1NC(=O)[C@@H](N(C)C(=O)[C@@H](NC(=O)[C@@H]2C[C@@H](F)CN2C(=O)C2(C(F)(F)F)CC(F)(F)C2)C2CC2)CCCCCCCN(C)C(=O)[C@H](Cc2cc(Cl)ccc2-c2cnc3c(cnn3C)c2)N(C)C1=O [Example 250] ({cBuCO(3,3-F2-1-CF3)}-[Pro(trans-4-F)][Gly(cPr)][NMehhhLys(Me)]L[X16]; lactam 3-C) | 5550 nM | – | 30 nM | – | 30 nM | – | 30 nM | 1620 nM | 20 nM |
| CC(C)C[C@@H]1NC(=O)[C@@H](N(C)C(=O)[C@@H](NC(=O)[C@@H]2C[C@@H](F)CN2C(=O)C2(C(F)(F)F)CC(F)(F)C2)C2CC2)CCCCCCCN(C)C(=O)[C@H](Cc2cc(Cl)ccc2-c2ccc(OC3CCOCC3)cc2)N(C)C1=O [Example 340] ({cBuCO(3,3-F2-1-CF3)}-[Pro(trans-4-F)][Gly(cPr)][NMehhhLys(Me)]L[X93]; lactam 3-C) | 17300 nM | 20 nM | 20 nM | 1650 nM | 20 nM | 20 nM | – | – | – |
| CC(C)C[C@@H]1NC(=O)[C@@H](N(C)C(=O)[C@@H](NC(=O)[C@@H]2C[C@@H](F)CN2C(=O)C2(C(F)(F)F)CC(F)(F)C2)C2CC2)CCCCCCCN(C)C(=O)[C@H](Cc2cc(Cl)cc3ccn(C)c23)N(C)C1=O [Example 392, (2S,4R)—N—((S)-2-(((3S,6S,9S)-3-((5-chloro-1-methyl-1H-indol-7-yl)methyl)-6-isobutyl-1,4-dimethyl-2,5,8-trioxo-1,4,7-triazacyclohexadecan-9-yl)(methyl)amino)-1-cyclopropyl-2-oxoethyl)-1-(3,3-difluoro-1-(trifluoromethyl)cyclobutane-1-carbonyl)-4-fluoropyrrolidine-2-carboxamide] ({cBuCO(3,3-F2-1-CF3)}-[Pro(trans-4-F)][Gly(cPr)][NMehhhLys(Me)]L[X96]; lactam 3-C) | 14700 nM | 230 nM | 170 nM | 830 nM | 170 nM | 20 nM | – | – | – |
| CC(C)C[C@@H]1NC(=O)[C@@H](N(C)C(=O)[C@@H](NC(=O)[C@@H]2C[C@@H](F)CN2C(=O)C2(C(F)(F)F)CC(F)(F)C2)C2CC2)CCCCCCCN(C)C(=O)[C@H](Cc2cc(Cl)ccc2-c2cnn3c2COCC3)N(C)C1=O [Example 233] ({cBuCO(3,3-F2-1-CF3)}-[Pro(trans-4-F)][Gly(cPr)][NMehhhLys(Me)]L[X83]; lactam 3-C) | 15200 nM | – | 30 nM | – | 30 nM | – | 50 nM | 1600 nM | 20 nM |
| Cc1nnc(-c2ccc(Cl)cc2C[C@H]2C(=O)NCCCCCCC[C@H](N(C)C(=O)[C@@H](NC(=O)[C@@H]3C[C@@H](F)CN3C(=O)C3(C(F)(F)F)CC(F)(F)C3)C3CC3)C(=O)N[C@@H](CC(C)C)C(=O)N2C)o1 [Example 160] ({cBuCO(3,3-F2-1-CF3)}-[Pro(trans-4-F)][Gly(cPr)][NMe(hhhLys)]L[X44]; lactam 3-C) | 11500 nM | 20 nM | 20 nM | 270 nM | 20 nM | 20 nM | – | – | – |
| CC(C)C[C@@H]1NC(=O)[C@@H](N(C)C(=O)[C@@H](NC(=O)[C@@H]2C[C@@H](F)CN2C(=O)C2(C(F)(F)F)CC(F)(F)C2)C2CC2)CCCCCCCNC(=O)[C@H](Cc2cc(Cl)ccc2C2=CCN(C(=O)C(C)C)CC2)N(C)C1=O [Example 98] ({cBuCO(3,3-F2-1-CF3)}-[Pro(trans-4-F)][Gly(cPr)][NMe(hhhLys)]L[X58]; lactam 3-C) | 16400 nM | 20 nM | 20 nM | 1100 nM | 20 nM | 20 nM | – | – | – |
| CC(C)C[C@@H]1NC(=O)[C@@H](N(C)C(=O)[C@@H](NC(=O)[C@@H]2C[C@@H](F)CN2C(=O)C2(C(F)(F)F)CC(F)(F)C2)C2CC2)CC=CCCCCNC(=O)[C@H](Cc2cc(Cl)ccc2-c2cnn(C)c2)N(C)C1=O [Example 26] | 8740 nM | 60 nM | 170 nM | 1170 nM | 110 nM | 20 nM | – | – | – |
| CC(C)C[C@@H]1NC(=O)[C@@H](N(C)C(=O)[C@@H](NC(=O)[C@@H]2C[C@@H](F)CN2C(=O)[C@@]2(C(F)(F)F)CCCCO2)C2CC2)CCCCCCCN(C)C(=O)[C@H](Cc2cc(Cl)ccc2OC2(C)CC2)N(C)C1=O [Example 260] ({Oxane2carbonyl(2R-CF3)}-[Pro(trans-4-F)][Gly(cPr)][NMehhhLys(Me)]L[X64]; lactam 3-C) | 6390 nM | 50 nM | 40 nM | 100 nM | 40 nM | 20 nM | – | – | – |
